Our source for the IC50 values is patent US20240317721A1, “PYRAZOLYL DERIVATIVES AS INHIBITORS OF THE KRAS MUTANT PROTEIN” (NOVARTIS AG, priority 2021, published 2024).

Some results are limits rather than exact numbers.

Broadly, the IC50 is the point on the concentration scale where inhibition reaches its midpoint.

For the assay, the target named is KRasG12C (M1-K169, biotinylated on the N-terminus) (Homo sapiens (Human), UniProt P01116, G12C). Put plainly: Covalent competition assay: scintillation proximity assay (SPA) quantifying covalent modification of KRASG12C. The format is binding. The following applies: competition with radiolabeled covalent probe (Compound B/Compound A), 2 hours incubation, 10 nM KRasG12C. How it is done:
Cells were harvested by centrifugation and frozen at −80° C. until further processing. […] The cells were lysed by 4 passages through an Avestin Emulsiflex at about 20000 psi and insoluble debris removed by centrifugation and filtered through a 0.45 µm Durapore membrane (Millipore). […] Eluted protein fractions were analyzed by Novex NuPage 4-12% PAGE. […] The protein in the flow through was subjected to a final polishing step on a HiLoad 16/60 Superdex 200 prep grade size-exclusion column pre-equilibrated with SEC-buffer (20 mM HEPES pH 7.4, 150 mM NaCl, 5 mM MgCl2, 1 µM GDP). Positive fractions were determined by PAGE (Novex NuPage 4-12% BisTris) analysis.
A scintillation proximity assay (SPA) was used to determine the potency of the compounds.
This assay measures the ability of the test compound to compete with the radiolabeled covalent probe for binding to and covalently modify KRASG12C.
(see above for synthesis of Compound A and Compound B). A serial dilution of the compounds to be tested is mixed with a fixed concentration of the radiolabeled covalent probe before incubation with KRASG12C:GDP as described below. KRASG12C can either be bound by the radiolabeled covalent probe (Compound B), resulting in light being emitted from the beads, or bound by covalent test compound preventing signal generation.
A 1/20 isotopic dilution of labeled (Compound B) and non-labeled covalent (Compound A) probe was prepared and added to all wells on the plate. The reaction was started by addition of KRasG12C (M1-K169, biotinylated on the N-terminus) to the compounds and incubated for 2 hours with continuous agitation allowing for full modification of KRasG12C with probe or test compounds. Final concentrations in an assay volume of 40 μL were 10 nM KRasG12C, 25 nM radio-ligand and 475 nM unlabelled ligand. The assay buffer contained 20 mM Tris-HCl pH 7.5 (Invitrogen), 150 mM NaCl (Sigma Aldrich), 0.1 mM MgCl2 (Sigma Aldrich), and 0.01% Tween-20 (Sigma Aldrich). Following addition of 50 μL of a 400 μg/mL suspension of streptavidin-coated YSi beads (Perkin Elmer), plates were incubated for a further 30 min with continuous agitation before reading the plates on a scintillation counter (Topcount NXT 384 (Packard).
Evaluation was carried out using assay data analysis software (such as the standard Novartis in-house Helios software application, Novartis Institutes for BioMedical Research, unpublished) using the methods described in Formenko et al., Robust Regression for high-throughput screening, Computer Methods and Programs in Biomedicine, 2006, 82, 31-37. Following normalization of activity values for the wells to % inhibition (% inhibition=[(high control−sample)/(high control−low control)]×100), IC50 fitting was carried out from the duplicate determinations present on each plate according to Formenko et al., 2006.
Evaluation can also be carried out using commercially available software which is designed to derive IC50 values using 4-parameter fits (e.g. GraphPad Prism, XL fit).
(In general: Scintillation proximity formats need no separation of bound from free tracer.)
`C=CC(=O)N1CC2(CC(n3nc(N4CCN(C(C)=O)CC4)c(-c4c(Cl)ccc5[nH]ncc45)c3C)C2)C1C` (single isomer, unassigned) [Example 198b, 1-(6-(3-(4-acetylpiperazin-1-yl)-4-(5-chloro-1H-indazol-4-yl)-5-methyl-1H-pyrazol-1-yl)-1-methyl-2-azaspiro[3.3]heptan-2-yl)prop-2-en-1-one]: the 50% inhibitory concentration (IC50) was greater than 50000 nM.

As to `C=CC(=O)N1CC2(CC(n3nc(N4CCN(C5COC5)C[C@]4(C)CC)c(-c4c(Cl)c(Cl)cc5[nH]ncc45)c3C)C2)C1` (single isomer, unassigned) [Example 155a], the IC50 came to 4000 nM.

On to `C=CC(=O)N1CC2(CC(n3nc(N4CCN(C5CCOCC5)CC45CCC5)c(-c4c(Cl)c(Cl)cc5[nH]ncc45)c3C)C2)C1` (single isomer, unassigned) [Example 145b, 1-(6-(4-(5,6-dichloro-1H-indazol-4-yl)-5-methyl-3-(8-(tetrahydro-2H-pyran-4-yl)-5,8-diazaspiro[3.5]nonan-5-yl)-1H-pyrazol-1-yl)-2-azaspiro[3.3]heptan-2-yl)prop-2-en-1-one], for which the half-maximal inhibitory concentration (IC50) amounted to 12 nM.

For the molecule `C=CC(=O)N1CC2(CC(n3nc(N4CCN(C[C@@H]5COCCO5)C[C@]4(C)CC)c(-c4c(Cl)c(C)cc5c4cnn5C)c3C)C2)C1` (single isomer, unassigned) [Example 109b], the IC50 was greater than 5000 nM.

As to `C=CC(=O)N1CC2(CC(n3nc(N4CCC(CN5CCOCC5)CC4(C)CC)c(-c4c(Cl)c(C)cc5[nH]ncc45)c3C)C2)C1` (single isomer, unassigned) [Example 222b, 1-(6-(4-(5-chloro-6-methyl-1H-indazol-4-yl)-3-(2-ethyl-2-methyl-4-(morpholinomethyl)piperidin-1-yl)-5-methyl-1H-pyrazol-1-yl)-2-azaspiro[3.3]heptan-2-yl)prop-2-en-1-one], the half-maximal inhibitory concentration (IC50) was 7 nM.

In the case of `C=CC(=O)N1CC2(CC(n3nc(N4CCC(C(=O)N(C)C)CC4(C)C)c(-c4c(Cl)c(C)cc5[nH]ncc45)c3C)C2)C1` (single isomer, unassigned) [Example 99a, 1-(1-(2-acryloyl-2-azaspiro[3.3]heptan-6-yl)-4-(5-chloro-6-methyl-1H-indazol-4-yl)-5-methyl-1H-pyrazol-3-yl)-N,N,2,2-tetramethylpiperidine-4-carboxamide], the IC50 stood at 2900 nM.

`C=CC(=O)N1CC2(CC(n3nc(N4CC[C@@H](CN5CCN(C6COC6)C[C@@H]5COC)CC4(C)C)c(-c4c(Cl)c(Cl)cc5[nH]ncc45)c3C)C2)C1` (single isomer, unassigned) [Example 320b]: the IC50 was less than 5 nM.

Turning to `C=CC(=O)N1CC2(CC(n3nc(N4CC[C@@H](CN5CCP(C)(=O)CC5)CC4(C)C)c(-c4c(Cl)c(Cl)cc5[nH]ncc45)c3C)C2)C1` (single isomer, unassigned) [Example 269b], the IC50 is 6 nM.

As to `C=CC(=O)N1CC2(CC(n3nc(N4C[C@H](C)N(C5COC5)CC4(C)C)c(-c4c(Cl)c(Cl)cc5[nH]ncc45)c3C)C2)C1` (single isomer, unassigned) [Example 104b], the IC50 was 27 nM.

In the case of `C=CC(=O)N1CC2(CC(n3nc(N4CCN(C[C@@H]5COCCO5)C[C@@]4(CC)C(F)F)c(-c4c(Cl)c(C)cc5[nH]ncc45)c3C)C2)C1` (single isomer, unassigned) [Example 107b], the half-inhibitory concentration (IC50) was 10 nM.

In the case of `C=CC(=O)N1CC2(CC(n3nc(N4CCN(C[C@@H]5COCCO5)C[C@]4(C)CC)c(-c4c(O)cccc4Cl)c3C)C2)C1` [Example 111, 1-(6-(3-((S)-4-(((R)-1,4-dioxan-2-yl)methyl)-2-ethyl-2-methylpiperazin-1-yl)-4-(2-chloro-6-hydroxyphenyl)-5-methyl-1H-pyrazol-1-yl)-2-azaspiro[3.3]heptan-2-yl)prop-2-en-1-one], the IC50 is 1700 nM.

For `C=CC(=O)N1CC2(CC(n3nc(N4CCN(C(=O)N(C)C)CC4(C)C)c(-c4c(Cl)c(C)cc5[nH]ncc45)c3C)C2)C1` (single isomer, unassigned) [Example 129a, 4-(1-(2-acryloyl-2-azaspiro[3.3]heptan-6-yl)-4-(5-chloro-6-methyl-1H-indazol-4-yl)-5-methyl-1H-pyrazol-3-yl)-N,N,3,3-tetramethylpiperazine-1-carboxamide], the IC50 worked out at 32 nM.

On to `C=CC(=O)N1CC2(CC(n3nc(N4CC[C@H](CN5CCOCC5)CC4(C)C)c(-c4c(Cl)c(Cl)cc5[nH]ncc45)c3C)C2)C1` (single isomer, unassigned) [Example 214b], for which the IC50 stood at 679 nM.

With `C=CC(=O)N1CC2(CC(n3nc(N4CCN(C5COC5)C5COCC54)c(-c4c(Cl)c(C)cc5[nH]ncc45)c3C)C2)C1` (stereo not drawn) [Example 136b, 1-(6-(4-(5-chloro-6-methyl-1H-indazol-4-yl)-5-methyl-3-((4aS*,7aS*)-4-(oxetan-3-yl)hexahydrofuro[3,4-b]pyrazin-1(2H)-yl)-1H-pyrazol-1-yl)-2-azaspiro[3.3]heptan-2-yl)prop-2-en-1-one], the 50% inhibitory concentration (IC50) was greater than 5000 nM.

Take `C=CC(=O)N1CC2(CC(n3nc(N4CC[C@@H](CN5CCCC6CN(C)C(=O)C65)CC4(C)C)c(-c4c(Cl)c(Cl)cc5[nH]ncc45)c3C)C2)C1` (single isomer, unassigned) [Example 262a, (4aR*,7aR*)-1-(((R)-1-(1-(2-acryloyl-2-azaspiro[3.3]heptan-6-yl)-4-(5,6-dichloro-1H-indazol-4-yl)-5-methyl-1H-pyrazol-3-yl)-2,2-dimethylpiperidin-4-yl)methyl)-6-methyloctahydro-7H-pyrrolo[3,4-b]pyridin-7-one]: the IC50 is greater than 5000 nM.

Take `C=CC(=O)N1CC2(CC(n3nc(N4CCC(N(C)C5COC5)CC45CCC5)c(-c4c(Cl)c(C)cc5[nH]ncc45)c3C)C2)C1` (single isomer, unassigned) [Example 51a, 1-(6-(4-(5-chloro-6-methyl-1H-indazol-4-yl)-5-methyl-3-(8-(methyl(oxetan-3-yl)amino)-5-azaspiro[3.5]nonan-5-yl)-1H-pyrazol-1-yl)-2-azaspiro[3.3]heptan-2-yl)prop-2-en-1-one]: the IC50 came to 10 nM.

`C=CC(=O)N1CC2(CC(n3nc(N4CCN(C[C@@H]5COCCO5)C[C@]4(C)CC)c(-c4c(Cl)c(Cl)cc5[nH]ncc45)c3C)C2)C1` (single isomer, unassigned) [Example 89a]: the IC50 is 3400 nM.

`C=CC(=O)N1CC2(CC(n3nc(N4CC[C@@H](CN5CCN(CCOC)C(=O)C5)CC4(C)C)c(-c4c(Cl)c(Cl)cc5[nH]ncc45)c3C)C2)C1` (single isomer, unassigned) [Example 256b]: the IC50 is 10 nM.

Take `C=CC(=O)N1CC2(CC(n3nc(N4CC[C@@H](CN5CC6(O)CC5C6)CC4(C)C)c(-c4c(Cl)c(Cl)cc5[nH]ncc45)c3C)C2)C1` (single isomer, unassigned) [Example 293a]: the IC50 turned out to be 4000 nM.

Turning to `[2H]C1([2H])OC([2H])([2H])C([2H])([2H])N(C[C@@H]2CCN(c3nn(C4CC5(C4)CN(C(=O)C=C)C5)c(C)c3-c3c(Cl)c(Cl)cc4[nH]ncc34)C(C)(C)C2)C1([2H])[2H]` (single isomer, unassigned) [Example 283b], the IC50 amounted to 8 nM.

On to `C=CC(=O)N1CC2(CC(n3nc(N4CC[C@@H](CN5C[C@@H]6C[C@H]5CS6(=O)=O)CC4(C)C)c(-c4c(Cl)c(Cl)cc5[nH]ncc45)c3C)C2)C1` (single isomer, unassigned) [Example 249a], for which the IC50 was greater than 5000 nM.
